Results reported in US5446157A, “Boron difluoride compounds useful in photodynamic therapy and production of laser light” (priority 1993, dated 1995).
Values joined by “and” are separate entries in the source; they are usually repeats but may differ in a detail not shown here. Equal values may be shown once. Read-outs that look alike come from different tables or passages of the source. Each block holds one compound with its values, some of them ahead of it.

Tests used:
[1] = cited from earlier work
[2] = Ref [2], cited from earlier work; for λmax: 5 × 10^-6 M in ethanol
[3] = Laser characteristics of pyrromethene-BF2 complexes under flashlamp excitation (Table IV); details: for Life: DMA/MeOH
[4] = Photostability in methanol under flashlamp excitation pulses
[5] = UV light absorption (λmax, log ε); format: physicochemical; details: for λmax: 5 × 10^-6 M in ethanol; for log ε: solvent as for λmax (ethanol except where noted); for absorption shift: in comparison with 8-substituted peralkylated structures (7b, g, k)
Procedure: Each recorded UV absorption was restricted to the highest wave length. Fluorescence quantum yields of the dyes were determined for ethanol solutions with excitation at 450 and 460 nm by reference to acridine orange, .PHI.0.46, in ethanol; for the dye 7p the reference was R-6G, <P 0.90. […] Melting points were obtained from a Mel-Temp II device and were uncorrected. The solvent for ^1 H NMR spectra was chloroform-d with tetramethylsilane as an internal standard. Elemental analyses were obtained from Midwest Micro Lab, Indianapolis, Ind. and Galbraith Laboratories, Inc., Knoxville, Tenn. Solvents were removed by rotary evaporation under reduced pressure unless indicated otherwise. Column chromatography was performed on silica gel.
5 × 10^-6 M in ethanol except where noted otherwise.

[6] = Fluorescence (λf, quantum yield); format: physicochemical; details: for λf: 2 × 10^-4 M in ethanol; for .PHI.f (fluorescence quantum yield): ethanol, excitation 450 and 460 nm, reference acridine orange
Procedure: Instruments for spectroscopic measurements included: Perkin-Elmer 1600 FTIR, Varian Gernini 300 NMR, Hewlett-Packard 5985 (70 eV) GC-MS, Cary 17 (UV), and Perkin-Elmer LS-5B Luminescence spectrometer. A dye laser was constructed and operated in the non-flowing (static) mode and had no tuning capability. […] Laser energy outputs were measured with an accuracy of ±5% by a Scientech 365 power and energy meter.
Light absorption, luminescence, and laser activity properties for the dyes 7 are described in Table VI. Each recorded UV absorption was restricted to the highest wave length. Fluorescence quantum yields of the dyes were determined for ethanol solutions with excitation at 450 and 460 nm by reference to acridine orange, .PHI.0.46, in ethanol; for the dye 7p the reference was R-6G, <P 0.90. Melting points were obtained from a Mel-Temp II device and were uncorrected. The solvent for ^1 H NMR spectra was chloroform-d with tetramethylsilane as an internal standard. Elemental analyses were obtained from Midwest Micro Lab, Indianapolis, Ind. and Galbraith Laboratories, Inc., Knoxville, Tenn. Solvents were removed by rotary evaporation under reduced pressure unless indicated otherwise. Column chromatography was performed on silica gel. Molecular weights were confirmed by EI-MS for the pyrrole 4j 193 and for laser dyes 7d 346, 7e 374, 7g 374, 7i 342, 7j 314 and 7x 360. IR absorption data satisfactorily supported structure assignments for the laser dyes 7.
^[b] 2 × 10^-4 M in ethanol except where noted otherwise.

[7] = Solubility/fluorescence in various solvents (Tables I, II); format: physicochemical
Procedure: In addition, tests were conducted on the product in order to determine its solubility/fluorescence in various solvents. One property of the compositions described herein involves a variable degree of solubility/fluorescence relative to the solvents with which they are combined. Data showing a variety of different solvents combined with the product of Example I is presented below in Table I:
As in Example I, tests were conducted on the product in Example II in order to determine its fluorescence in various solvents. Data showing a variety of different solvents combined with the product of Example II is presented below in Table II: […]

[8] = Photostability under irradiation with 250 watt sun lamp; format: physicochemical
Procedure: In addition, experiments were conducted in order to determine the photostability of the product of Example I. A solution was prepared by mixing 0.1 g of the product with 50 ml of dichloromethane solvent. The solution was placed in a 100 ml round bottom flask and irradiated with light from a sun lamp (250 watts at a distance of approximately 8 inches from the flask). […] However, another solution was made by combining 0.1 g of product in 250 ml of CH3 OH and 10 ml of CH2 Cl2. Addition of the CH2 Cl2 was undertaken to obtain complete dissolution. The solution was placed in a […] and irradiated as described above. […] Thus, the use of different solvents will cause a variation in both the character and duration of fluorescence.
In addition, a further test was conducted in order to determine the photostability of the product. Specifically, 2.0 mg of the product in a 100 ml round bottom flask was dissolved in 50 ml of H2 O. The solution was then irradiated by light from a 250 watt sun lamp placed approximately 8 inches from the flask. UV spectral data was recorded periodically as shown below in Table III.

[9] = P-BF2 dyes dispersed in acrylic co-polymer (solid-state laser)
Text: Any laser dye of the present invention may be substituted for the dye in any of the examples of that incorporated patent. The matrix generally includes solid polymeric host laser rods prepared using bulk polymerization of acrylic acid ester comonomers.

[10] = 2 × 10^-4 M in ethanol, Ref [2]

SMILES: CC1=C(C)C(C)=[N+]2C1=C(C)c1c(C)c(C)c(C)n1[B-]2(F)F [Compound 7b]
λf [1, 10]: 546 nm
.PHI.f ([1]; Ref [2]): 0.70
λmax [2]: 518 nm
log ε [2]: 4.67

SMILES: CCN=c1cc2oc3cc(NCC)c(C)cc3c(-c3ccccc3C(=O)OCC)c-2cc1C [Rhodamine 590, reference compound]
Life [3]: 15 kJ/L

SMILES: c1ccc2cc3ccccc3cc2c1 [anthracene, reference compound]
λf ([1]; literature): 400 nm

SMILES: CCN=c1cc2oc3cc(NCC)c(C)cc3c(-c3ccccc3C(=O)OCC)c-2cc1C [Compound R-6G, reference compound]
photostability in methanol [4]: 1500 pulses
fluorescence quantum yield of reference ([1]; reference standard): 0.90

SMILES: CC1=CC(C)=[N+]2C1=C(C)c1c(C)cc(C)n1[B-]2(F)F [Compound 7a, 4,4-difluoro-1,3,5,7,8-pentamethyl-4-bora-3a,4a-diaza-s-indacene]
λf [1, 10]: 519 nm
.PHI.f ([1]; Ref [2]): 0.99
λmax [2]: 493 nm
log ε [2]: 4.90
wavelength of incident light that produced the greatest fluorescence ([6]; FIG. 2, in ethanol): 500-550 nm
Life [3]: ~50 kJ/L
Color of Fluorescence, Room light ([7]; (CF3)2 CHOH): green
Color of Fluorescence, UV ([7]; (CF3)2 CHOH): green
Color of Solution ([7]; (CF3)2 CHOH): yellow
Solubility ([7]; (CF3)2 CHOH): soluble
Color of Fluorescence, Room light ([7]; CClF2 --CFCl2): green
Color of Fluorescence, UV ([7]; CClF2 --CFCl2): green
Color of Solution ([7]; CClF2 --CFCl2): yellow
Color of Solution ([7]; CF3 CH2 OH): green
Solubility ([7]; CH2 Cl2): soluble
Solubility ([7]; H2 O): insoluble
visual change in fluorescence (photostability) ([8]; 0.1 g in 50 ml dichloromethane, sun lamp, 22 days): No visual change in fluorescence was observed
fluorescence after irradiation (photostability) ([8]; 0.1 g in 250 ml CH3 OH and 10 ml CH2 Cl2, sun lamp, 8 days): no fluorescence was observed

SMILES: CCC1=C(C)C2=C(C)c3c(C)c(CC)c(C)n3[B-](F)(F)[N+]2=C1C [Compound 7c, 1,3,5,7,8-pentamethyl-2,6-diethylpyrromethene-BF2 complex]
λf [1, 10]: 546 nm
.PHI.f ([1]; Ref [2]): 0.83
solubility in the polymer matrix [9]: particularly soluble
λmax [2]: 517 nm
log ε [2]: 4.81

Second part, the compound after the results:

λmax [5]: 540 nm
log ε [5]: 5.00
λf [6]: 564 nm
.PHI.f (fluorescence quantum yield) [6]: 0.60
SMILES: CCC1=C(c2ccccc2)C2=Cc3c(-c4ccccc4)c(CC)c(C)n3[B-](F)(F)[N+]2=C1C [Compound 7u]

λmax [5]: 519 nm
log ε [5]: 4.95
λf [6]: 575 nm
.PHI.f (fluorescence quantum yield) [6]: 0.04
SMILES: CCC1=C(C)C2=C(c3ccc(N(C)C)cc3)c3c(C)c(CC)c(C)n3[B-](F)(F)[N+]2=C1C [Compound 7s]

λmax [5]: 527 nm
absorption shift [5]: slight bathochromic shift in absorption
log ε [5]: 4.93
fluorescence [6]: erratic effect on fluorescence
λf [6]: 554 nm
.PHI.f (fluorescence quantum yield) [6]: 0.84
SMILES: CC1=C(C(C)(C)C)C(C)=[N+]2C1=Cc1c(C)c(C(C)(C)C)c(C)n1[B-]2(F)F [Compound 7x, 1,3,5,7-tetramethyl-2,6-di-tert-butylpyrromethene-BF2 complex]

λmax [5]: 522 nm
log ε [5]: > 4.8 and 4.91
λf [6]: 552 nm
SMILES: CC1=C2CCCCC2=[N+]2C1=C(C)c1c(C)c3c(n1[B-]2(F)F)CCCC3 [Compound 7i]

λmax [5]: 521 nm
log ε [5]: 4.89
λf [6]: 554 nm
.PHI.f (fluorescence quantum yield) [6]: 0.75
SMILES: CCC1=C(CC)C(C)=[N+]2C1=C(C)c1c(CC)c(CC)c(C)n1[B-]2(F)F [Compound 7k, 1,2,6,7-tetraethyl-3,5,8-trimethylpyrromethene BF2 complex]

λmax [5]: 529 nm
absorption shift [5]: slight bathochromic shift in absorption
log ε [5]: 4.89
fluorescence [6]: erratic effect on fluorescence
λf [6]: 554 nm
.PHI.f (fluorescence quantum yield) [6]: 0.70
SMILES: CCC1=C(CC)C(C)=[N+]2C1=Cc1c(CC)c(CC)c(C)n1[B-]2(F)F [Compound 7y, 1,2,6,7-tetraethyl-3,5-dimethylpyrromethene-BF2 complex]

Eo after 1000 S at 25 J ([3]; footnote to Life, after 1000 S at 25 J): ~ 80 mJ
SMILES: CCC1=C2C(C)=CC(C)=[N+]2[B-](F)(F)n2c(C)cc(C)c21 [III, 4,4-difluoro-1,3,5,7-tetramethyl-8-ethyl-4-bora-3a,4a-diaza-s-indacene]

λmax [5]: 497 nm
log ε [5]: 4.86
λf [6]: 521 nm
.PHI.f (fluorescence quantum yield) [6]: 0.63
SMILES: COc1ccc(C2=C3C(C)=CC(C)=[N+]3[B-](F)(F)n3c(C)cc(C)c32)cc1 [Compound 7t, 1,3,5,7-tetramethyl-8-p-methoxyphenylpyrromethene-BF2 complex]
